In patent US8404696B2, “Quinazoline-2,4-dione derivative, and medical compositions for the prophylaxis and treatment of cranial nerve disease containing the same” (Shin Poong Pharmaceutical Co., Ltd., priority 2008, dated 2013):

What was measured:
[1] = test system: superoxide dismutase (SOD); experiment: Increase of superoxide dismutase (SOD) activity in mouse brain cells; assay type: cell-based; settings: 100 μg/ml
Procedure: ROS inhibitory effect of compounds was represented to the dose suppressing 50% of production of reactive oxygen compared to control. […] The activity of superoxide dismutase (SOD) was measured by using a kit acquired in Sigma.

SH-SY5Y cells [2] = experiment: Inhibitory effect on ZnSO4-mediated cytotoxicity (MTT assay); assay type: cell-based, humans; settings: compound 50 μg/ml; 600 μM zinc sulfate, 24 hours
Procedure: SH-SY5Y cells were cultured with 3×10^4 cell concentration in 96 well plates, and the compound (50 μg/ml) was treated. After 30 minutes, 600 μM of zinc sulfate was treated to induce toxicity for 24 hours and survival rate of cells was measured by MTT assay.

thoracic aorta of rats = experiment: Relaxing effect on thoracic aorta contracted by phenylephrine (organ bath); parameters: species or system rats of SD species; settings: 67 μg/mL, phenylephrine 0.5 μM, mean n = 3
Method in brief: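 Thoracic aortic rings (2 mm) from ether-anesthetized male SD rats (250-300 g) were mounted in Krebs buffer gassed with 95% O2/5% CO2 and equilibrated at 1.0 g basal tension for 90 min. After stable contraction with phenylephrine (0.5 μM), compounds were added and relaxation recorded.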

[3] = test system: mixed culture of nerve cells-glial cells; experiment: Protecting effect on NMDA-induced nerve cell death (LDH release); assay type: cell-based, ICR mouse; settings: 100 μM NMDA, LDH release after 24 hours
Method in brief: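 Embryonic day-14 ICR mouse cortical neurons seeded on cortical glia, Ara-C-treated, then exposed at day 12–15 for 20 min to 100 μM NMDA with compound at 1 or 2 μg/mL. LDH released 24 h later measured colorimetrically as a cell-death index.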

mouse brain cells = experiment: Inhibitory effect on ROS production in brain cells (DCF-DA, NMDA-induced); assay type: cell-based; settings: dose suppressing 50% of production of reactive oxygen compared to control; mouse brain cells
[4] = test system: pentylentetrazole (PTZ)-induced convulsion; experiment: Anti-convulsant effect, pentylentetrazole (PTZ) test; assay type: in vivo; settings: 10 mg/kg intraperitoneally, PTZ 80 mg/kg subcutaneously
Method in brief: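 Compound was given intraperitoneally at 10 mg/kg before PTZ challenge. The read-outs were time to convulsion onset, time until convulsions fully disappeared, and mortality.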

SH-SY5Y cells [5] = experiment: Inhibitory effect on H2O2-mediated cytotoxicity (MTT assay); assay type: cell-based, humans; settings: 200 μM hydrogen peroxide, 24 hours
Procedure: SH-SY5Y cells that are oriented by nerve cell line from humans were cultured with 3×10^4 cell concentration in 96 well plate, and the sample was treated. After 30 minutes, 200 μM hydrogen peroxide was treated to induce toxicity for 24 hours. After the reaction was completed, the survival rate of cells was measured by MTT assay.

[3-(2,4-dioxo-1,4-dihydro-2H-quinazolin-3-yl)propyl]-{4-[3-(2,4-dioxo-1,4-dihydro-2H-quinazolin-3-yl)propylamino]butyl}heptanoic amide [Compound 35]
Increase of SOD activity, compared to control [1]: 3.4 ± 7.9 | inhibitory percentage, zinc-induced toxicity (SH-SY5Y cells [2]): 9.1 ± 1.8% | Relaxation percentage (thoracic aorta of rats): 42.6% | Inhibitory effect of cell death by NMDA-induced excitable neurotoxicity ([3]; 1 μg/ml compound): 32.5% | Inhibitory effect of cell death by NMDA-induced excitable neurotoxicity ([3]; 2 μg/ml compound): 35.7% | ROS inhibitory effect ID50 (mouse brain cells): 140.0 ± 18.6 µg/mL | mortality rate ([4]; (animals/total), negative control 70(17/23)): 33(2/6) % | Induction percentage of convulsion ([4]; (animals/total), negative control 100(23/23)): 100(6/6) % | Initiation time of convulsion ([4]; negative control 5.0 ± 0.7): 5.4 ± 1.6 min | Duration of convulsion ([4]; negative control 46.7 ± 3.3): 33.3 ± 7.3 min

CC(=O)N(CCCCN(CCCn1c(=O)[nH]c2ccccc2c1=O)C(C)=O)CCCn1c(=O)[nH]c2ccccc2c1=O [Compound 4, N-(4-{acetyl-[3-(2,4-dioxo-1,4-dihydro-2H-quinazolin-3-yl)propyl]amino}butyl)-N-[3-(2,4-dioxo-1,4-dihydro-2H-quinazolin-3-yl)propyl]acetamide]
Increase of SOD activity, compared to control [1]: 0.6 ± 2.2 | inhibitory percentage, oxidative toxicity induced by hydroperoxide (SH-SY5Y cells [5]; 5 μg/ml): 2.0 ± 0.4% | inhibitory percentage, oxidative toxicity induced by hydroperoxide (SH-SY5Y cells [5]; 50 μg/ml): 18.1 ± 2.1% | inhibition at 67 µg/mL (thoracic aorta of rats; Rattus norvegicus, read-out: Relaxation percentage): 7.7% | Inhibitory effect of cell death by NMDA-induced excitable neurotoxicity ([3]; 1 μg/ml compound): 22.3% | Inhibitory effect of cell death by NMDA-induced excitable neurotoxicity ([3]; 2 μg/ml compound): 7.4%
